Calls of active or inactive are those of the source. The rule behind the calls is not given here.
Tests used:
MCF7 [1] = test: Induction of apoptosis in human MCF7 cells assessed as increase in AMPK mRNA level at 1 to 10 umol/L after 48 hrs by qRT-PCR analysis; format: functional, cell-based; details: dose 1-10 µmol/L
MCF7 [2] = test: Induction of apoptosis in human MCF7 cells assessed as increase in AMPK mRNA level after 48 hrs by qRT-PCR analysis; format: functional, cell-based; details: dose 1-10 µmol/L
MCF7 [3] = test: Inhibition of cell migration in human MCF7 cells assessed as reduction in wound healing at 10 umol/L measured upto 72 hrs by scratch assay; format: functional; details: MCF7, 72 h, dose 10 µmol/L
MCF7 [4] = test: Induction of apoptosis in human MCF7 cells assessed as increase in early apoptotic cells after 48 hrs by flow cytometry analysis; format: functional, cell-based
MCF7 [5] = test: Inhibition of cell migration in human MCF7 cells assessed as reduction in wound healing at 1 umol/L measured upto 72 hrs by scratch assay; format: functional, cell-based; details: dose 1.0 µmol/L
MCF7 [6] = test: Induction of apoptosis in human MCF7 cells assessed as decrease in c-Myc mRNA level at 1 to 10 umol/L after 48 hrs by qRT-PCR analysis; format: functional, cell-based; details: dose 1-10 µmol/L
MCF7 [7] = test: Induction of apoptosis in human MCF7 cells assessed as decrease in c-Myc mRNA level after 48 hrs by qRT-PCR analysis; format: functional, cell-based; details: dose 1-10 µmol/L
MCF7 [8] = test: Induction of apoptosis in human MCF7 cells assessed as increase in Bcl-2 mRNA level after 48 hrs by qRT-PCR analysis; format: functional, cell-based; details: dose 1-10 µmol/L
MCF7 [9] = test: Induction of apoptosis in human MCF7 cells assessed as decrease in c-Myc mRNA level at 1 to 10 umol/L by qRT-PCR analysis; format: functional, cell-based; details: dose 1-10 µmol/L, TDE = time-dependent effect
MCF7 [10] = test: Induction of apoptosis in human MCF7 cells assessed as increase in AMPK mRNA level at 1 to 10 umol/L by qRT-PCR analysis; format: functional, cell-based; details: dose 1-10 µmol/L, TDE = time-dependent effect
MCF7 [11] = test: Induction of apoptosis in human MCF7 cells assessed as increase in Bcl-2 mRNA level at 1 to 10 umol/L after 48 hrs by qRT-PCR analysis; format: functional, cell-based; details: dose 1-10 µmol/L
MCF7 [12] = test: Induction of apoptosis in human MCF7 cells assessed as increase in Bcl-2 mRNA level at 1 to 10 umol/L by qRT-PCR analysis; format: functional, cell-based; details: dose 1-10 µmol/L, TDE = time-dependent effect
[13] = Fluorescent property of compound in PBS at pH 7.4 assessed as emission wavelength by microplate reader analysis; format: physicochemical; details: buffer
[14] = Drug uptake in HEK293 cells assessed as fluorescence emission by fluorescence microscopic analysis; format: ADME, cell-based; details: human
[15] = Fluorescent property of compound in PBS at pH 7.4 assessed as excitation wavelength by microplate reader analysis; format: physicochemical; details: buffer
[16] = Drug uptake in human MCF7 cells assessed as fluorescence emission by fluorescence microscopic analysis; format: ADME, cell-based
[17] = target: Bromodomain-containing protein 3 (Homo sapiens) (UniProt Q15059); test: Binding affinity to recombinant BRD3 (unknown origin) in PBS at pH 7.4 assessed as increase in fluorescence intensity at […] in presence of JQ1(+) by TR-FRET assay; details: time 30.0 min
[18] = target: Bromodomain-containing protein 3 (Homo sapiens) (UniProt Q15059); test: Binding affinity to recombinant BRD3 (unknown origin) in PBS at pH 7.4 assessed as increase in fluorescence intensity measured after 30 mins by TR-FRET assay; details: dose 15.0 µmol/L
[19] = Drug uptake in BRD3 silenced fixed human MCF7 cells nucleus assessed as fluorescence intensity at 15 umol/L by acridine orange dye based analysis; format: ADME, cell-based; details: mcf7, 15 µM, dose 15 µmol/L
[20] = Drug uptake in BRD4 silenced fixed human MCF7 cells nucleus assessed as fluorescence intensity at 15 umol/L by acridine orange dye based analysis; format: ADME, cell-based; details: mcf7, 15 µM, dose 15 µmol/L
[21] = target: Bromodomain-containing protein 4 (Homo sapiens) (UniProt O60885); test: Binding affinity to recombinant BRD4 (unknown origin) in PBS at pH 7.4 assessed as increase in fluorescence intensity measured after 30 mins by TR-FRET assay; details: dose 0.4-3.1 µg/ml
[22] = Drug uptake in BRD3 silenced human MCF7 cells nucleus assessed as fluorescence intensity at 15 umol/L by acridine orange dye based analysis; format: ADME, cell-based; details: mcf7, 15 µM, dose 15 µmol/L
[23] = Drug uptake in human MCF7 cells nucleus assessed as fluorescence intensity at 15 umol/L in presence of JQ1(+) by acridine orange dye based analysis; format: ADME, cell-based; details: mcf7, 15 µM, dose 15 µmol/L
[24] = Drug uptake in human MCF7 cells xenografted mouse tumor tissue assessed as fluorescence intensity at 15 umol/L by acridine orange dye based fluorescence microscopic assay; format: ADME, cell-based; details: in vivo, 15 µM, dose 15 µmol/L
MCF7 [25] = test: Antiproliferative activity against human MCF7 cells assessed as reduction in cell viability by MTT assay; format: functional, cell-based
[26] = Drug uptake in fixed human MCF7 cells nucleus assessed as fluorescence intensity in presence of BRD3 antibody by acridine orange dye based analysis; format: ADME, cell-based
[27] = Drug uptake in human MCF7 cells xenografted nude mouse tumor tissue assessed as fluorescence intensity at 15 umol/L in presence of JQ1(+) by acridine orange dye based fluorescence microscopic assay; format: ADME, Neoplasm; details: in vivo, 15 µM, dose 15 µmol/L
[28] = target: Bromodomain-containing protein 4 (Homo sapiens) (UniProt O60885); test: Binding affinity to recombinant BRD4 (unknown origin) in PBS at pH 7.4 assessed as increase in fluorescence intensity at […] in presence of JQ1(+) by TR-FRET assay; details: time 30.0 min
[29] = Drug uptake in human MCF7 cells xenografted nude mouse tumor tissue in presence of BRD4 antibody by immunofluorescence analysis; format: ADME, Neoplasm; details: in vivo
[30] = Drug uptake in fixed human MCF7 cells nucleus assessed as fluorescence intensity in presence of BRD4 antibody by acridine orange dye based analysis; format: ADME, cell-based
[31] = Drug uptake in human MCF7 cells nucleus assessed as fluorescence intensity at 15 umol/L by acridine orange dye based analysis; format: ADME, cell-based; details: mcf7, 15 µM, dose 15 µmol/L
[32] = Drug uptake in BRD4 silenced human MCF7 cells nucleus assessed as fluorescence intensity at 15 umol/L by acridine orange dye based analysis; format: ADME, cell-based; details: mcf7, 15 µM, dose 15 µmol/L
[33] = Drug uptake in human MCF7 cells xenografted nude mouse tumor tissue in presence of BRD3 antibody by immunofluorescence analysis; format: ADME, Neoplasm; details: in vivo

Sequence of Bromodomain-containing protein 3 (Homo sapiens) (Q15059 2-726 limits assumed): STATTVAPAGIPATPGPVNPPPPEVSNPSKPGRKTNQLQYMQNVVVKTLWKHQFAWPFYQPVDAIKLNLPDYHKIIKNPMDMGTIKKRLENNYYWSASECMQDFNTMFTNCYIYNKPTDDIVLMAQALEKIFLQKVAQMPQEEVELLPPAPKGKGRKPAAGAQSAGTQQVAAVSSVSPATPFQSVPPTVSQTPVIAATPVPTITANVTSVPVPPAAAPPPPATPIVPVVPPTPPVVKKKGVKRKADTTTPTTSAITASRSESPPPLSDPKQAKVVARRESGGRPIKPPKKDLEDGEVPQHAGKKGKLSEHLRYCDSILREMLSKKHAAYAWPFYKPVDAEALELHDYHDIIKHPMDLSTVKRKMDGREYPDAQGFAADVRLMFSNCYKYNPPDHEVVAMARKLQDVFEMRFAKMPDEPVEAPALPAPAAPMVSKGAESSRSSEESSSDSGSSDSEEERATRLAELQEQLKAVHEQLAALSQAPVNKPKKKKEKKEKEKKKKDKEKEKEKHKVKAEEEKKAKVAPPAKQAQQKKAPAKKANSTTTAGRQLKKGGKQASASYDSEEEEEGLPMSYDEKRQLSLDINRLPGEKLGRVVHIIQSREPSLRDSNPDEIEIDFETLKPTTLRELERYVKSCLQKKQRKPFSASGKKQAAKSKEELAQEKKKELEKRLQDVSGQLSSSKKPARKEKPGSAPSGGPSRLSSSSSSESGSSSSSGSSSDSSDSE

Row | SMILES | Activity (MCF7 [1]) | Activity (MCF7 [2]) | inhibition at 10 µM (MCF7 [3]) | Activity (MCF7 [4]) | inhibition (MCF7 [5]) | Activity (MCF7 [6]) | Activity (MCF7 [7]) | Activity (MCF7 [8]) | Activity (MCF7 [9]) | Activity (MCF7 [10]) | Activity (MCF7 [11]) | Activity (MCF7 [12]) | Activity [13] | Drug uptake [14] | Activity [15] | Drug uptake [16] | other results
1 | Cc1sc2c(c1C)C(c1ccc(Cl)cc1)=N[C@@H](CC(=O)OC(C)(C)C)c1nnc(C)n1-2 | Active | Dose-Dependent Effect | 100% | Active | Active | Active | Dose-Dependent Effect | Dose-Dependent Effect | Tde | Tde | Active | Tde |  |  |  |  | 
2 | Cc1sc2c(c1C)C(c1ccc(Cl)cc1)=N[C@@H](CC(=O)NCCCCCNS(=O)(=O)c1cccc3c(N(C)C)cccc13)c1nnc(C)n1-2 |  |  |  |  |  |  |  |  |  |  |  |  | 495 nm | Not Active | 350 nm | Active | 
3 | Cc1sc2c(c1C)C(c1ccc(Cl)cc1)=N[C@@H](CC(=O)NCCCNS(=O)(=O)c1cccc3c(N(C)C)cccc13)c1nnc(C)n1-2 | Active | Dose-Dependent Effect | 100% | Active | Active | Active | Dose-Dependent Effect | Dose-Dependent Effect | Tde | Tde | Active | Tde | 495 nm | Not Active | 350 nm | Active | Activity [17]: inactive; Activity [18]: Dose-Dependent Effect; Drug uptake [19]: Active; Drug uptake [20]: Active; Activity [21]: Dose-Dependent Effect; Drug uptake [22]: Active; Drug uptake [23]: Not Active; Drug uptake [24]: Active; Activity (MCF7 [25]): Active; Drug uptake [26]: Active; Drug uptake [27]: Not Active; Activity [28]: inactive; Drug uptake [29]: Active; Drug uptake [30]: Active; Drug uptake [31]: Active; Drug uptake [32]: Active; Drug uptake [33]: Active
4 | Cc1sc2c(c1C)C(c1ccc(Cl)cc1)=N[C@@H](CC(=O)NCCCCNS(=O)(=O)c1cccc3c(N(C)C)cccc13)c1nnc(C)n1-2 |  |  |  |  |  |  |  |  |  |  |  |  | 495 nm | Not Active | 350 nm | Active | 

Reference: ChEMBL document CHEMBL5620373, “Establishment of environment-sensitive probes targeting BRD3/BRD4 for imaging and therapy of tumor” (Eur J Med Chem, 2023)
